In PubChem BioAssay (NCI):
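Dose response: 5 concentrations. Exposure: 48 h. Format: 96-well plates. Endpoint: linear interpolation; highest concentration if not reached. TGI marks complete inhibition of growth.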

How the values were obtained:
Experiment in all cases: NCI tumour cell line growth inhibition, 48 h
786-0 renal = tested on: 786-0 renal
A498 renal = tested on: A498 renal
A549 NSCLC = tested on: A549 NSCLC
ACHN renal = tested on: ACHN renal
BT-549 breast = tested on: BT-549 breast
CAKI-1 renal = tested on: CAKI-1 renal
CCRF-CEM leukemia = tested on: CCRF-CEM leukemia
COLO 205 colon = tested on: COLO 205 colon
DU-145 prostate = tested on: DU-145 prostate
EKVX NSCLC = tested on: EKVX NSCLC
HCC-2998 colon = tested on: HCC-2998 colon
HCT-116 colon = tested on: HCT-116 colon
HCT-15 colon = tested on: HCT-15 colon
HOP-62 NSCLC = tested on: HOP-62 NSCLC
HOP-92 NSCLC = tested on: HOP-92 NSCLC
HT29 colon = tested on: HT29 colon
IGROV1 ovarian = tested on: IGROV1 ovarian
K-562 leukemia = tested on: K-562 leukemia
KM12 colon = tested on: KM12 colon
LOX IMVI melanoma = tested on: LOX IMVI melanoma
M14 melanoma = tested on: M14 melanoma
MCF7 breast = tested on: MCF7 breast
MDA-MB-231 breast = tested on: MDA-MB-231 breast
MDA-MB-435 = tested on: MDA-MB-435
MDA-N = tested on: MDA-N
MOLT-4 leukemia = tested on: MOLT-4 leukemia
NCI-H226 lung = tested on: NCI-H226 lung
NCI-H23 lung = tested on: NCI-H23 lung
NCI-H460 lung = tested on: NCI-H460 lung
NCI-H522 lung = tested on: NCI-H522 lung
NCI/ADR-RES ovarian = tested on: NCI/ADR-RES ovarian
OVCAR-3 ovarian = tested on: OVCAR-3 ovarian
OVCAR-4 ovarian = tested on: OVCAR-4 ovarian
OVCAR-5 ovarian = tested on: OVCAR-5 ovarian
OVCAR-8 ovarian = tested on: OVCAR-8 ovarian
PC-3 prostate = tested on: PC-3 prostate
RPMI-8226 leukemia = tested on: RPMI-8226 leukemia
RXF 393 renal = tested on: RXF 393 renal
SF-295 CNS = tested on: SF-295 CNS
SF-539 CNS = tested on: SF-539 CNS
SK-MEL-2 melanoma = tested on: SK-MEL-2 melanoma
SK-MEL-28 melanoma = tested on: SK-MEL-28 melanoma
SK-MEL-5 melanoma = tested on: SK-MEL-5 melanoma
SN12C renal = tested on: SN12C renal
SNB-19 CNS = tested on: SNB-19 CNS
SNB-75 CNS = tested on: SNB-75 CNS
SR leukemia = tested on: SR leukemia
SW-620 colon = tested on: SW-620 colon
U251 CNS = tested on: U251 CNS
UACC-257 melanoma = tested on: UACC-257 melanoma
UACC-62 melanoma = tested on: UACC-62 melanoma
UO-31 renal = tested on: UO-31 renal
HS 578T breast = tested on: HS 578T breast
MALME-3M melanoma = tested on: MALME-3M melanoma
SF-268 CNS = tested on: SF-268 CNS
SK-OV-3 ovarian = tested on: SK-OV-3 ovarian
T-47D breast = tested on: T-47D breast
TK-10 renal = tested on: TK-10 renal

SMILES: COc1nc2c(c(=O)[nH]1)N=C(c1ccc(Cl)cc1)CC(c1ccccc1)N2 (stereo not given)
- TGI (786-0 renal): > 100 µM
- TGI (A498 renal): > 100 µM
- TGI (A549 NSCLC): > 100 µM
- TGI (ACHN renal): 52.3 µM
- TGI (BT-549 breast): > 100 µM
- TGI (CAKI-1 renal): 66.2 µM
- TGI (CCRF-CEM leukemia): 44.9 µM
- TGI (COLO 205 colon): > 100 µM
- TGI (DU-145 prostate): > 100 µM
- TGI (EKVX NSCLC): > 100 µM
- TGI (HCC-2998 colon): > 100 µM
- TGI (HCT-116 colon): > 100 µM
- TGI (HCT-15 colon): 64.6 µM
- TGI (HOP-62 NSCLC): > 100 µM
- TGI (HOP-92 NSCLC): 67.9 µM
- TGI (HT29 colon): > 100 µM
- TGI (IGROV1 ovarian): > 100 µM
- TGI (K-562 leukemia): 67.1 µM
- TGI (KM12 colon): > 100 µM
- TGI (LOX IMVI melanoma): 57.1 µM
- TGI (M14 melanoma): 43 µM
- TGI (MCF7 breast): > 100 µM
- TGI (MDA-MB-231 breast): 50.8 µM
- TGI (MDA-MB-435): > 100 µM
- TGI (MDA-N): 76.8 µM
- TGI (MOLT-4 leukemia): > 100 µM
- TGI (NCI-H226 lung): > 100 µM
- TGI (NCI-H23 lung): > 100 µM
- TGI (NCI-H460 lung): 69.3 µM
- TGI (NCI-H522 lung): 48.6 µM
- TGI (NCI/ADR-RES ovarian): 75.4 µM
- TGI (OVCAR-3 ovarian): > 100 µM
- TGI (OVCAR-4 ovarian): 57.4 µM
- TGI (OVCAR-5 ovarian): > 100 µM
- TGI (OVCAR-8 ovarian): 60.9 µM
- TGI (PC-3 prostate): > 100 µM
- TGI (RPMI-8226 leukemia): 65.8 µM
- TGI (RXF 393 renal): 61.4 µM
- TGI (SF-295 CNS): 70.7 µM
- TGI (SF-539 CNS): 42.1 µM
- TGI (SK-MEL-2 melanoma): 60.1 µM
- TGI (SK-MEL-28 melanoma): 54.1 µM
- TGI (SK-MEL-5 melanoma): 36.8 µM
- TGI (SN12C renal): 47.1 µM
- TGI (SNB-19 CNS): > 100 µM
- TGI (SNB-75 CNS): 54.9 µM
- TGI (SR leukemia): > 100 µM
- TGI (SW-620 colon): > 100 µM
- TGI (U251 CNS): > 100 µM
- TGI (UACC-257 melanoma): > 100 µM
- TGI (UACC-62 melanoma): 46.6 µM
- TGI (UO-31 renal): > 100 µM

SMILES: COc1cc2c(cc1O)C(=O)O[C@@H]1CC=C3CCN(C)[C@H]3[C@H]21
- TGI (786-0 renal): > 25 µM
- TGI (A498 renal): > 25 µM
- TGI (A549 NSCLC): > 25 µM
- TGI (ACHN renal): > 25 µM
- TGI (BT-549 breast): > 25 µM
- TGI (CAKI-1 renal): > 25 µM
- TGI (CCRF-CEM leukemia): > 25 µM
- TGI (DU-145 prostate): > 25 µM
- TGI (EKVX NSCLC): > 25 µM
- TGI (HCC-2998 colon): > 25 µM
- TGI (HCT-116 colon): > 25 µM
- TGI (HCT-15 colon): > 25 µM
- TGI (HOP-62 NSCLC): > 25 µM
- TGI (HS 578T breast): > 25 µM
- TGI (HT29 colon): > 25 µM
- TGI (IGROV1 ovarian): > 25 µM
- TGI (K-562 leukemia): > 25 µM
- TGI (KM12 colon): > 25 µM
- TGI (M14 melanoma): > 25 µM
- TGI (MALME-3M melanoma): > 25 µM
- TGI (MCF7 breast): > 25 µM
- TGI (MDA-MB-231 breast): > 25 µM
- TGI (MDA-MB-435): > 25 µM
- TGI (MDA-N): > 25 µM
- TGI (MOLT-4 leukemia): > 25 µM
- TGI (NCI-H226 lung): > 25 µM
- TGI (NCI-H23 lung): > 25 µM
- TGI (NCI-H522 lung): > 25 µM
- TGI (NCI/ADR-RES ovarian): > 25 µM
- TGI (OVCAR-3 ovarian): > 25 µM
- TGI (OVCAR-4 ovarian): > 25 µM
- TGI (OVCAR-5 ovarian): > 25 µM
- TGI (OVCAR-8 ovarian): > 25 µM
- TGI (PC-3 prostate): > 25 µM
- TGI (RPMI-8226 leukemia): > 25 µM
- TGI (RXF 393 renal): > 25 µM
- TGI (SF-268 CNS): > 25 µM
- TGI (SF-295 CNS): > 25 µM
- TGI (SK-MEL-2 melanoma): > 25 µM
- TGI (SK-MEL-28 melanoma): > 25 µM
- TGI (SK-MEL-5 melanoma): > 25 µM
- TGI (SK-OV-3 ovarian): > 25 µM
- TGI (SN12C renal): > 25 µM
- TGI (SNB-19 CNS): > 25 µM
- TGI (SNB-75 CNS): > 25 µM
- TGI (SR leukemia): > 25 µM
- TGI (SW-620 colon): > 25 µM
- TGI (T-47D breast): > 25 µM
- TGI (TK-10 renal): > 25 µM
- TGI (U251 CNS): > 25 µM
- TGI (UACC-257 melanoma): > 25 µM
- TGI (UACC-62 melanoma): > 25 µM
- TGI (UO-31 renal): > 25 µM
